Results published in publication PMC8370991, “Structural basis for the inhibition of HTLV-1 integration inferred from cryo-EM deltaretroviral intasome structures” (Nature Communications, 2021).
Where two headings read alike, the source gives them in different places.

How the values were obtained:
recombinant HTLV-1 IN [1] = target: T1, recombinant HTLV-1 IN (Human T-cell leukemia virus 1, UniProt P03362); assay: In vitro integration strand transfer assay with HTLV-1 IN; assay type: biochemical; details: INSTI at 634 nM
T1 construct: made in house
T1 sequence (P03362 1168-1462): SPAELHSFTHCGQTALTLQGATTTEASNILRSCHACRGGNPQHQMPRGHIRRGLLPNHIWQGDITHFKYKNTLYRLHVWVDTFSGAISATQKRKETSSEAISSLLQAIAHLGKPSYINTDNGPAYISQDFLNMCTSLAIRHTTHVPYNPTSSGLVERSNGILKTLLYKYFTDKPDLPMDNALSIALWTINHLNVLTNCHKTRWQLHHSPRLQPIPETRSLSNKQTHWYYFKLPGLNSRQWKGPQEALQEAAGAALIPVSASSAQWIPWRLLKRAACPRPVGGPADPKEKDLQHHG
Experimental: We used in vitro strand transfer assays to screen this small molecule library for its ability to inhibit recombinant HTLV-1 IN. The enzyme was incubated with an oligonucleotide vDNA donor mimic in the presence or absence of INSTIs and was allowed to react with a supercoiled plasmid mimicking target DNA. During the screening, the concentration of each compound was adjusted to 634 nM to provide optimal resolution of efficacy between well- and under-performing compounds.
The donor vDNA that mimics the 3′-processed LTR of HTLV-1 or STLV-1 DNA was preassembled by annealing the U5_S20Q_UP and U5_S20Q_B or MarB43_U5_S30UP or MarB43_U5_S30B oligonucleotides, respectively (Supplementary Table 4) in 100 mM Tris pH 7.4, 400 mM NaCl. For HTLV-1 IN, strand transfer reactions were conducted in a solution of 24.3 mM PIPES pH 6.0, 138.4 mM NaCl, 16.6 mM MgCl2, 5.8 μM ZnCl2, 12.7 mM DTT, 0.53 μM donor DNA and 4 μg of HTLV-1 IN[9],[39]. In brief, the reaction was incubated at RT for 15 min in the presence of an INSTI or dimethyl sulfoxide (DMSO) control and the reaction was started by the addition of 300 ng of pGEM-9Zf(-) supercoiled plasmid DNA. The reaction was incubated for 1 h at 37 °C and stopped by adding 0.5% SDS and 25 mM ethylenediaminetetraacetic acid (EDTA), pH 8.0.
(§1) Proteins were degraded by incubation with 30 μg of proteinase K (Roche) at 37 °C for 1 h. DNA was precipitated at −20 °C overnight in the presence of ethanol supplemented with 20 μg of glycogen and then resuspended in 1.5× agarose loading dye. The DNA products were separated by electrophoresis through 1.5% agarose gel and stained with ethidium bromide and imaged using the BioRad GelDox XR + imager. The data were analysed and the IC50 calculated as previously described. In brief, the DNA band that corresponds to the concerted integration product was quantified by densitometry in ImageLab 4.1 (Bio-Rad). All experiments were done in triplicate. Quantified data points were fitted to dose–response curves in Prism 9. The cumulative standard deviation for each drug was calculated as an average of the upper limit and lower limit values: Lowerlimit=IC50/10^logSE(IC50) Upperlimit=IC50×10^logSE(IC50)

STLV-1 IN (WT) = assay: In vitro strand transfer assay with wild-type STLV-1 IN; assay type: biochemical; parameters: STLV-1 WT strand transfer activity: unit not given here
Experimental: (§2) For STLV-1 IN, the reaction conditions were 25 mM BTP-HCl pH 6, 0.1 μM STLV-1 IN, 2 μM vDNA, 60 mM NaCl, 13.28 mM DTT, 10 mM MgCl2, 10 μM ZnCl2. STLV-1 IN and LEDGF/ΔIBD-B56γ were co-incubated at the above conditions at a 2:1 molar ratio, at 4 °C for 30 min. Donor vDNA was then added and the mixture was co-incubated at 37 °C for 10 min. For INSTI dose–response experiments, either the INSTI or DMSO control was then added, the sample was mixed and kept at 4 °C for an additional 15 min. Strand-transfer reactions were initiated by the addition of 300 ng of pGEM-9Zf(-) supercoiled plasmid DNA and stopped after 15 min of 37 °C incubation by adding 0.5% SDS and 25 mM EDTA, pH 8.0.
as §1

STLV-1 IN(A219E) = assay: In vitro strand transfer assay with STLV-1 IN(A219E); assay type: biochemical; parameters: STLV-1 A219E strand transfer activity: unit not given here
Experimental: as §2, §1

recombinant HTLV-1 IN [2] = target: T1, recombinant HTLV-1 IN; details: previously obtained values, cited from earlier work
HTLV-1 = details: cited from earlier work
HIV-1 = details: cited from earlier work
[3] = log10 concentration -3.69897, column 1 of 3
[4] = log10 concentration -3.69897, column 2 of 3
[5] = log10 concentration -4.69897, column 1 of 3
[6] = log10 concentration -4.69897, column 2 of 3
[7] = log10 concentration -5.69897, column 1 of 3
[8] = log10 concentration -5.69897, column 2 of 3
[9] = log10 concentration -6.19791, column 1 of 3
[10] = log10 concentration -6.19791, column 2 of 3
[11] = log10 concentration -6.69897, column 1 of 3
[12] = log10 concentration -6.69897, column 2 of 3
[13] = log10 concentration -7.19791, column 1 of 3
[14] = log10 concentration -7.19791, column 2 of 3
[15] = log10 concentration -7.69897, column 1 of 3
[16] = log10 concentration -7.69897, column 2 of 3
[17] = log10 concentration -8.69897, column 1 of 3
[18] = log10 concentration -8.69897, column 2 of 3
[19] = log10 concentration -10.699, column 1 of 3
[20] = log10 concentration -10.699, column 2 of 3

## Cc1nnc(C(=O)NC(C)(C)c2nc(C(=O)NCc3ccc(F)cc3)c(O)c(=O)n2C)o1 [Raltegravir]
Recombinant HTLV-1 IN [1]; Replicate 1
  HTLV-1 IN strand transfer activity (No drug = 100): 34.4506%
Recombinant HTLV-1 IN [1]; Replicate 2
  HTLV-1 IN strand transfer activity (No drug = 100): 36.5909%
STLV-1 IN (WT); Supplementary Fig. 9
  sensitivity of STLV-1 IN to the inhibitor: highly sensitive
STLV-1 IN (WT); log10 concentration -3.69897
  STLV-1 WT strand transfer activity: 15.0259
STLV-1 IN (WT); [3]
  STLV-1 WT strand transfer activity: 3.382
STLV-1 IN (WT); [4]
  STLV-1 WT strand transfer activity: 1.339
STLV-1 IN (WT); log10 concentration -4.69897
  STLV-1 WT strand transfer activity: 15.0259
STLV-1 IN (WT); [5]
  STLV-1 WT strand transfer activity: 1.932
STLV-1 IN (WT); [6]
  STLV-1 WT strand transfer activity: 3.125
STLV-1 IN (WT); log10 concentration -5.69897
  STLV-1 WT strand transfer activity: 25.9067
STLV-1 IN (WT); [7]
  STLV-1 WT strand transfer activity: 14.0097
STLV-1 IN (WT); [8]
  STLV-1 WT strand transfer activity: 13.3929
STLV-1 IN (WT); log10 concentration -6.19791
  STLV-1 WT strand transfer activity: 38.342
STLV-1 IN (WT); [9]
  STLV-1 WT strand transfer activity: 20.7729
STLV-1 IN (WT); [10]
  STLV-1 WT strand transfer activity: 15.625
STLV-1 IN (WT); log10 concentration -6.69897
  STLV-1 WT strand transfer activity: 40.9326
STLV-1 IN (WT); [11]
  STLV-1 WT strand transfer activity: 26.57
STLV-1 IN (WT); [12]
  STLV-1 WT strand transfer activity: 43.3036
STLV-1 IN (WT); log10 concentration -7.19791
  STLV-1 WT strand transfer activity: 63.2124
STLV-1 IN (WT); [13]
  STLV-1 WT strand transfer activity: 62.3188
STLV-1 IN (WT); [14]
  STLV-1 WT strand transfer activity: 68.75
STLV-1 IN (WT); log10 concentration -7.69897
  STLV-1 WT strand transfer activity: 94.3005
STLV-1 IN (WT); [15]
  STLV-1 WT strand transfer activity: 86.4734
STLV-1 IN (WT); [16]
  STLV-1 WT strand transfer activity: 94.1964
STLV-1 IN (WT); log10 concentration -8.69897
  STLV-1 WT strand transfer activity: 91.7098
STLV-1 IN (WT); [17]
  STLV-1 WT strand transfer activity: 100.483
STLV-1 IN (WT); [18]
  STLV-1 WT strand transfer activity: 99.1071
STLV-1 IN (WT); log10 concentration -9.69897
  STLV-1 WT strand transfer activity: 106.218
STLV-1 IN (WT); log10 concentration -9.69897, column 1 of 3
  STLV-1 WT strand transfer activity: 101.449
STLV-1 IN (WT); log10 concentration -9.69897, column 2 of 3
  STLV-1 WT strand transfer activity: 100.446
STLV-1 IN (WT); log10 concentration -10.699
  STLV-1 WT strand transfer activity: 100.518
STLV-1 IN (WT); [19]
  STLV-1 WT strand transfer activity: 102.415
STLV-1 IN (WT); [20]
  STLV-1 WT strand transfer activity: 99.5536
STLV-1 IN(A219E); Supplementary Fig. 9
  IC50 with STLV-1 IN A219E compared with wild-type STLV-1 IN: nearly identical
STLV-1 IN(A219E); log10 concentration -3.69897
  STLV-1 A219E strand transfer activity: 4.375
STLV-1 IN(A219E); [3]
  STLV-1 A219E strand transfer activity: 11.7647
STLV-1 IN(A219E); [4]
  STLV-1 A219E strand transfer activity: 5.393
STLV-1 IN(A219E); log10 concentration -4.69897
  STLV-1 A219E strand transfer activity: 6.875
STLV-1 IN(A219E); [5]
  STLV-1 A219E strand transfer activity: 7.843
STLV-1 IN(A219E); [6]
  STLV-1 A219E strand transfer activity: 4.103
STLV-1 IN(A219E); log10 concentration -5.69897
  STLV-1 A219E strand transfer activity: 7.8125
STLV-1 IN(A219E); [7]
  STLV-1 A219E strand transfer activity: 11.7647
STLV-1 IN(A219E); [8]
  STLV-1 A219E strand transfer activity: 9.8476
STLV-1 IN(A219E); log10 concentration -6.19791
  STLV-1 A219E strand transfer activity: 12.6562
STLV-1 IN(A219E); [9]
  STLV-1 A219E strand transfer activity: 16.6667
STLV-1 IN(A219E); [10]
  STLV-1 A219E strand transfer activity: 12.4267
STLV-1 IN(A219E); log10 concentration -6.69897
  STLV-1 A219E strand transfer activity: 25.4688
STLV-1 IN(A219E); [11]
  STLV-1 A219E strand transfer activity: 27.9412
STLV-1 IN(A219E); [12]
  STLV-1 A219E strand transfer activity: 28.136
STLV-1 IN(A219E); log10 concentration -7.19791
  STLV-1 A219E strand transfer activity: 49.375
STLV-1 IN(A219E); [13]
  STLV-1 A219E strand transfer activity: 64.2157
STLV-1 IN(A219E); [14]
  STLV-1 A219E strand transfer activity: 59.4373
STLV-1 IN(A219E); log10 concentration -7.69897
  STLV-1 A219E strand transfer activity: 90.625
STLV-1 IN(A219E); [15]
  STLV-1 A219E strand transfer activity: 108.333
STLV-1 IN(A219E); [16]
  STLV-1 A219E strand transfer activity: 86.2837
STLV-1 IN(A219E); log10 concentration -8.69897
  STLV-1 A219E strand transfer activity: 101.406
STLV-1 IN(A219E); [17]
  STLV-1 A219E strand transfer activity: 107.843
STLV-1 IN(A219E); [18]
  STLV-1 A219E strand transfer activity: 97.5381
STLV-1 IN(A219E); log10 concentration -10.699
  STLV-1 A219E strand transfer activity: 97.9688
STLV-1 IN(A219E); [19]
  STLV-1 A219E strand transfer activity: 103.922
STLV-1 IN(A219E); [20]
  STLV-1 A219E strand transfer activity: 99.8828
Recombinant HTLV-1 IN [2]; Replicate 1, read-out: HTLV-1 IN strand transfer IC50
  IC50: 477 nM
Recombinant HTLV-1 IN [2]; Replicate 2, read-out: HTLV-1 IN strand transfer IC50
  IC50: 425 nM
Recombinant HTLV-1 IN [2]; Replicate 3, read-out: HTLV-1 IN strand transfer IC50
  IC50: 344 nM
Recombinant HTLV-1 IN [2]; integrase strand-transfer, read-out: HTLV-1 IC50 ± stdev
  IC50: 410 ± 78.5 nM
HTLV-1; MT-2-Jurkat cell-to-cell infection, read-out: HTLV-1 EC50
  EC50: 6.42 ± 4.24 nM
HTLV-1; Replicate 1, previously reported values, read-out: HTLV-1 infection EC50
  EC50: 7.85 nM
HTLV-1; Replicate 2, previously reported values, read-out: HTLV-1 infection EC50
  EC50: 8.18 nM
HTLV-1; Replicate 3, previously reported values, read-out: HTLV-1 infection EC50
  EC50: 4.08 nM
HIV-1; HIV-1 infection model, supplementary ref 18, read-out: HIV-1 EC50 ± stdev
  EC50: 9.4 ± 1.4 nM
HIV-1; previously reported, read-out: EC50, infection by wild-type HIV-1
  EC50: 4 ± 2 nM
